Measured values taken from publication PMC11793105, “A kalihinol analog disrupts apicoplast function and vesicular trafficking in P. falciparum malaria” (Science (New York, N.Y.), 2024).
“And” between values parts separate entries of the source, which are not always exact repeats. Equal entries are not always repeated. Where two headings read alike, the source gives them in different places.

How the values were obtained:
[1] = system: P. falciparum 3D7 Clone / 3D7 Parental; assay: SYBR Green dose response, cloned 3D7 control/parental lines of the resistance selection; type: cell-based, Plasmodium falciparum
Text: To assess whether we could use the DMSO melting curves previously established for […] by Dziekan et al. ([49]), we calculated the difference in melting temperatures (ΔTm) between our DMSO dataset and Dziekan’s for 364 proteins for which Tm values were confidently calculated by mineCETSA (table S6).
Fig. 4. […] (C) Schematic representation of the CRISPR-Cas9–based replacement strategy used to introduce a deletion of the targeted repeat regions in the PfSec13 gene. The insertion was achieved through overlap extension polymerase chain reaction (PCR) of fragments directly upstream and downstream of the target segment and subsequently formed by primer overlap extension PCR to replicate the desired deletion. […] (D) Predicted structure of the SEC13 protein highlighting the seven amino acid tandem repeat regions targeted for deletion (red). […] Data were analyzed using a Sigmoidal, 4PL (X represents concentration, n = 3, nonlinear regression, CI: 95%).
P. falciparum in vitro SYBR green fluorescence-based assays The anti-malarial activity of individual analogues were evaluated in-vitro against P. falciparum 3D7 (MRA-102, drug […]
green-I based fluorescence assay. Parasite growth rate and stages of development were determined via microscopy through Giemsa-stained smears of the cultures. Serial dilutions of the compounds ranging from 10uM-0.5nM were prepared in 96-well plates (Corning, Costar 3904) followed by […]
hematocrit added to each well. Eight wells were treated with vehicle control (DMSO) as control.
Plates were incubated in a modular incubation chamber (Billups-Rothenberg, Del Mar, CA)

[2] = Pharmacokinetic profile at 25 and 50 mg/Kg (Table S9b); type: in vivo, Male CD1 mouse; details: for Cmax: oral, blood; for AUC(0-inf): read-out: AUCINF_obs
Experimental: An Acquity ultra-performance liquid chromatography (UPLC) system (Waters Corp., Milford, MA, USA) couple to a triple quadrupole mass spectrometer (API 4000, AB Sciex, Foster City, CA, USA) was used for the analysis ([99]).
Blood concentration time data were analyzed by Non-Compartmental PK analysis using Phoenix WinNonlin software (Certara, NY, US) to calculate PK parameters. […]
were housed in cages (Tecniplast®). The cages contained autoclaved dust free corncob bedding […]
provided ad libitum. Environmental conditions: Photoperiods, simulated dawn/dusk facility, were […]
The temperature range was 22± 2 °C. […]
route, once a day, 10ml/kg). […]
Two mice were treated at 50
To confirm the data, 3 animals per dose
(hematology, clinical chemistry, and necropsy). Additionally in the same animals with the same […]
determination of blood level exposures and pharmacokinetic analysis. […]
Peripheral blood […]
samples (15 µL) were taken at frequent intervals, mixed with 30 µL of H2O milli Q and immediately frozen on dry ice. The frozen samples were stored at −80 °C until analysis. Vehicle-treated mice experienced the same blood-sampling regimen (table S9, S10).
Bioanalysis and pharmacokinetics analysis: LC-MS
Bioanalysis of in vivo samples: Sample pretreatment Before the analysis 15ul of blood samples were defrost at ambient temperature and mixture with 200ul of ACN:MeOH (80:20). After protein precipitation samples were filtered by 0.45um filter plate (Multiscreen Solvinert 0.45um FTPE, Millipore). The 2ul TFA (Trifluoroacetic acid, sigmaAldrich) were added to each filtered sample in order to derivatize the compound to formamide analogue. This process occurs spontaneously.
LC-MS analysis An Acquity Ultra-Performance liquid chromatography (UPLC) system (Waters Corp., Milford, MA, USA) couple to a triple quadrupole mass spectrometer (API 4000™, AB Sciex, Foster City, CA, USA) was used for the analysis. The MS/MS transition was 311.340 / […]
The chromatographic separation was carried out at 0.4ml/min in a Acquity UPLC™ BEH C18 column (50x2.1 mm i.d., […]; Waters Corp.) at 40 °C with Acetonitrile (sigmaAldrich) and 0.1% formic acid as eluents.
Pharmacokinetic analysis Blood concentration time data were analyzed by Non-Compartmental PK analysis using Phoenix WinNonlin software (Certara NY, US) to calculate PK parameters. The maximum observed concentration (Cmax) and the time to reach it (Tmax), were determined. The area under concentration-time curve from dosing at time zero to the last measured concentration […]
time (AUClast) and the total area under concentration-time curve from time zero extrapolated to infinity (AUCinf), were calculated using a linear trapezoidal rule. […]

[3] = male, CD1, mouse, whole blood, po, 25 mg/kg, Mean
[4] = male, CD1, mouse, whole blood, po, 50 mg/kg, Mean
[5] = male, CD1, mouse, whole blood, po, 50 mg/kg, individual mice

[C-]#[N+][C@]1(C)CC[C@H]2[C@@H]([C@@H](C(C)C)CC[C@]2(C)[N+]#[C-])[C@H]1O [MED6-189]
IC50 ([1]; 3D7 Parental, drug-sensitive parental line): 15 nM | IC50 ([1]; Plasmodium falciparum, 3D7, 3D7 Clone (drug sensitive)): 13 nM | IC50 ([1]; Plasmodium falciparum, 3D7, 3D7 Parental, drug-sensitive parental line): ~14 nM | AUCINF_D_obs ([2]; 25 mg/Kg, Mean): 1505 kg·ng·h/mL/mg | AUC_%Extrap_obs ([2]; 25 mg/Kg, Mean): 0.955% | AUClast_D ([2]; 25 mg/Kg, Mean): 1491.7 kg·ng·h/mL/mg | Cmax_D ([2]; 25 mg/Kg, Mean): 188.6 kg·ng/mL/mg | HL_Lambda_z ([2]; 25 mg/Kg, Mean): 3.711 h | AUCINF_D_obs ([2]; 25 mg/Kg, individual mice): 2105.77 kg·ng·h/mL/mg and 904.22 kg·ng·h/mL/mg | AUCINF_obs ([2]; 25 mg/Kg, individual mice): 52644.4 ng·h/mL and 22605.6 ng·h/mL | AUC_%Extrap_obs ([2]; 25 mg/Kg, individual mice): 0.78% and 1.13% | AUClast ([2]; 25 mg/Kg, individual mice): 52232.7 ng·h/mL and 22350.5 ng·h/mL | AUClast_D ([2]; 25 mg/Kg, individual mice): 2089.31 kg·ng·h/mL/mg and 894.02 kg·ng·h/mL/mg | Cmax_D ([2]; 25 mg/Kg, individual mice): 232.4 kg·ng/mL/mg and 144.8 kg·ng/mL/mg | HL_Lambda_z ([2]; 25 mg/Kg, individual mice): 3.31 h and 4.11 h | Cmax ([2]; 25 mg/Kg, individual mice 1 and 2): 3620 ng/mL | AUCINF_D_obs ([2]; 50 mg/Kg, Mean): 2099.8 kg·ng·h/mL/mg | AUC_%Extrap_obs ([2]; 50 mg/Kg, Mean): 4.415% | AUClast_D ([2]; 50 mg/Kg, Mean): 2014.32 kg·ng·h/mL/mg | Cmax_D ([2]; 50 mg/Kg, Mean): 158.4 kg·ng/mL/mg | HL_Lambda_z ([2]; 50 mg/Kg, Mean): 4.536 h | AUCINF_D_obs ([2]; 50 mg/Kg, individual mice): 1882 kg·ng·h/mL/mg and 2317.54 kg·ng·h/mL/mg | AUCINF_obs ([2]; 50 mg/Kg, individual mice): 115877 ng·h/mL | AUC_%Extrap_obs ([2]; 50 mg/Kg, individual mice): 7.74% and 1.09% | AUClast ([2]; 50 mg/Kg, individual mice): 114617 ng·h/mL | AUClast_D ([2]; 50 mg/Kg, individual mice): 1736.3 kg·ng·h/mL/mg and 2292.34 kg·ng·h/mL/mg | Cmax_D ([2]; 50 mg/Kg, individual mice): 137.2 kg·ng/mL/mg and 179.6 kg·ng/mL/mg | HL_Lambda_z ([2]; 50 mg/Kg, individual mice): 5.74 h and 3.33 h | Cmax ([2]; 50 mg/Kg, individual mice 1 and 2): 8980 ng/mL | AUC(0-t) [2, 3]: 37300 ng·h/mL | AUC(0-inf) [2, 3]: 37600 ng·h/mL | Cmax ([2]; male, CD1, mouse, whole blood, po, 25 mg/kg, Mean of 2 mice, read-out: Cmax): 4720 ng/mL | Cmax ([2]; male, CD1, mouse, whole blood, po, 25 mg/kg, individual mice 1 and 2, read-out: Cmax): 5810 ng/mL | AUC(0-t) [2, 4]: 101000 ng·h/mL | AUC(0-inf) [2, 4]: 105000 ng·h/mL | AUC(0-t) [2, 5]: 86800 ng·h/mL | AUC(0-inf) [2, 5]: 94100 ng·h/mL | Cmax ([2]; male, CD1, mouse, whole blood, po, 50 mg/kg, Mean of 2 mice, read-out: Cmax): 7920 ng/mL | Cmax ([2]; male, CD1, mouse, whole blood, po, 50 mg/kg, individual mice 1 and 2, read-out: Cmax): 6860 ng/mL | Tmax ([2]; male, CD1, mouse, whole blood, po, 25 mg/Kg, individual mice): 4 h | Tmax ([2]; male, CD1, mouse, whole blood, po, 50 mg/Kg, individual mice): 7 h
